Source: patent US20230416782A1, “ENHANCED NANOPARTICLE DELIVERY SYSTEMS” (Children's Hospital Medical Center, priority 2020, published 2023)

Assays:
HeLa cells = assay: luciferase DNP transfection of HeLa cells with drug given before, with or after the DNPs (luciferase activity, light-based assay); assay type: cell-based; conditions: drug four hours before, at the same time as, or four hours after luciferase DNPs, versus DNP alone
Description: HeLa cells were transfected with luciferase DNPs either four hours after cells were treated with drug, at the same time as cells were treated with drug, or four hours before cells were treated with drug; DNP alone, RX001 (roscovitine), RX011 (spermine), and RX008 (ruxolitinib).
HeLa cells were transfected with luciferase DNPs either four hours after cells were treated with drug, at the same time as cells were treated with drug, or four hours before cells were treated with drug, DNP alone, RX012 (doxorubicin), RX013 (acetohexamide), and RX014 (sildenafil citrate).
FIG. 12. […] HeLa cell were treated for four hours prior to luciferase DNP administration. Drugs were obtained from a blinded plate. Labels on graphs indicate drugs position on blinded plate. *: p<0.05, **: p<0.01, ***: p<0.001, ***: p<0.0001, compared to DNP Alone group.
(§1) FIG. 17 depicts pharmacological manipulations before, after, and during DNP transfection. Hela cells were given roscovitine (1 μM, CDK1 inhibitor), spermine (1 μM, CKII activator), or ruxolitinib (0.1 μM, JAK inhibitor) at various times during transfection of luciferase DNPs. A. Hela cells were dosed with drugs for 4 hours, washed, and then given luciferase DNPs for 24 hours. B. Hela cells were simultaneously given drug and luciferase DNPs for 24 hr. C. Hela cells were given luciferase DNPs for 4 hours, washed, and then given drug for 24 hr. All cells were then lysed and analyzed for luciferase activity with a light-based assay. (n=8 for each group, signifies p<0.05 and signifies p<0.001).
as §1, with “Hela” for “FIG. 17 depicts pharmacological manipulations before, after, and during DNP transfection. Hela”, “group, mean and SEM shown,” for “group,”, “p<0.001)” for “p<0.001).”

hCFTR gene transfer = assay: in vivo hCFTR gene transfer by DNP with drug (CFTR expression, PCR); set-up: species or system mice; conditions: 2, 4 and 7 days post-DNP administration; versus DNP alone
Text: FIG. 16. Gene transfer of hCFTR is enhanced by pharmacologic manipulation of interactome proteins. DMP alone, RX001 (roscovitine), and RX008 (ruxolitinib), 2 days post-DNP administration, 4 days post-DNP administration and 7 days post-DNP administration.
FIG. 22. CFTR Expression comparison between NHBE cells (normal human bronchial/tracheal epithelial cells), Untreated Mice and Day 2 DNP Treated Mice, and CFTR Expression comparison in Day 4 mice treated with a vehicle (DNP Alone) or drug. Day 4 data represents vector subtracted values for the PCR of CFTR.

[1] = tested on: luciferase DNP gene transfer; assay: in vivo luciferase DNP gene transfer, drug dosed 2 hours before intratracheal DNP (BLI total photons and lung luciferase activity); conditions: for enhancement of in vivo DNP transfection over time (BLI): 2, 3, 7 and 14 days after DNP; for enhancement of in vivo DNP transfection over time (BLI) / DNP gene delivery efficacy in vivo (BLI total photons and lung luciferase activity): roscovitine 10 mg/kg, spermine 20 mg/kg, ruxolitinib 1 mg/kg, 2 hours prior to intratracheal 100 μg luciferase DNP; for DNP gene delivery efficacy in vivo (BLI total photons and lung luciferase activity): 14 days post DNP administration; for luciferase gene transfer in vivo, Bioluminescent Image (BLI) analysis: day 2, day 3, day 7 and day 14, compared to DNP Alone group; for total photons over a 10 min BLI exposure from the chest ROI, difference from the DNP alone group: day 14 after DNP, spermine 20 mg/kg (P<0.5), roscovitine 10 mg/kg (p<0.01), dosed 2 hours prior to intratracheal 100 μg luciferase DNP; for luciferase gene transfer in vivo, BLI image analysis and luciferase activity assay: versus DNP alone
Description: Total photon measurements were taken from the chest of each mouse, ROI outlined in red, and background luminescence was subtracted from mice saline control mice (not shown). B. Total photons collected over a 10 min BLI exposure from the ROI at each day.
All data was collected 14 days post DNP administration. […] The ROI, outlined in red, was consistently drawn on each mouse and used to quantify total photons in each mouse. B. Total photons collected over a 10 min BLI exposure from the ROI. Mice that received saline instead of DNPs (not shown) were used to subtract background from the experimental mice. […] Lungs from mice used in B were harvested immediately after BLI imaging and assayed for luciferase activity. (n>10 for each group, p<0.05, p<0.01, p<0.001)
All data was collected 14 days post DNP administration. […] The ROI, outlined in red, was consistently drawn on each mouse and used to quantify total photons in each mouse. B. Total photons collected over a 10 min BLI exposure from the ROI. Mice that received saline instead of DNPs (not shown) were used to subtract background from the experimental mice. […] Lungs from mice used in B were harvested immediately after BLI imaging and assayed for luciferase activity. (n>10 for each group, mean and SEM shown, p<0.05, p<0.01, p<0.001)

Compound | gene transfer of luciferase in vitro (HeLa cells) | gene transfer of hCFTR (hCFTR gene transfer) | enhancement of in vivo DNP transfection over time (BLI) [1] | DNP gene delivery efficacy in vivo (BLI total photons and lung luciferase activity) [1] | luciferase gene transfer in vivo, Bioluminescent Image (BLI) analysis [1] | total photons over a 10 min BLI exposure from the chest ROI, difference from the DNP alone group [1] | luciferase gene transfer in vivo, BLI image analysis and luciferase activity assay [1]
CC[C@H](CO)Nc1nc(NCc2ccccc2)c2ncn(C(C)C)c2n1 [RX001, Roscovitine] | enhanced | enhanced | maintained over time | enhancement | enhances | significantly different | enhances
N#CC[C@H](C1CCCC1)n1cc(-c2ncnc3[nH]ccc23)cn1 [RX008, Ruxolitinib] | enhanced | enhanced | maintained over time | enhancement | enhances |  | enhances
NCCCNCCCCNCCCN [RX011, Spermine] | enhanced |  | maintained over time | enhancement | enhances | significantly different | enhances
COc1cccc2c1C(=O)c1c(O)c3c(c(O)c1C2=O)C[C@@](O)(C(=O)CO)C[C@@H]3O[C@H]1C[C@H](N)[C@H](O)[C@H](C)O1 [RX012, Doxorubicin] | enhanced |  |  |  |  |  | 
CC(=O)c1ccc(S(=O)(=O)NC(=O)NC2CCCCC2)cc1 [RX013, Acetohexamide] | enhanced |  |  |  |  |  | 
CCCc1nn(C)c2c(=O)nc(-c3cc(S(=O)(=O)N4CCN(C)CC4)ccc3OCC)[nH]c12 [RX014, Sildenafil] | enhanced |  |  |  |  |  | 
